Peptide text beside a SMILES is read from it.
How the values were obtained:
[1] = Antiproliferative activity against human HUVEC cells under 10 J/cm2 light irradiation at 660 nm by CCK8 assay; format: toxicity, cell-based
HepG2 [2] = experiment: Antiproliferative activity against human HepG2 cells under dark condition by CCK8 assay; format: functional, cell-based
chymotrypsin = chymotrypsin (Homo sapiens, UniProt P17538+P40313+Q6GPI1+Q99895); experiment: Stability of compound assessed as chymotrypsin (unknown origin)-mediated compound degradation in PBS at pH 7.4 by measuring half life; format: ADME, protein assay
[3] = Antiproliferative activity against human HUVEC cells under dark condition by CCK8 assay; format: toxicity, cell-based
MCF7 [4] = experiment: Antiproliferative activity against human MCF7 cells under 10 J/cm2 light irradiation at 660 nm by CCK8 assay; format: functional, cell-based; details: MCF7, light or radiation study
HepG2 [5] = experiment: Antiproliferative activity against human HepG2 cells under 10 J/cm2 light irradiation at 660 nm by CCK8 assay; format: functional, cell-based; details: HepG2, light or radiation study
Huh-7 [6] = experiment: Antiproliferative activity against human Huh-7 cells under dark condition by CCK8 assay; format: functional, cell-based
[7] = Photostability of compound under 250 mW/cm2 light irradiation at 660 nm incubated for 10 mins by UV spectrophotometry; format: physicochemical; details: 0.66 µM
MCF7 [8] = experiment: Antiproliferative activity against human MCF7 cells under dark condition by CCK8 assay; format: functional, cell-based
Huh-7 [9] = experiment: Antiproliferative activity against human Huh-7 cells under 10 J/cm2 light irradiation at 660 nm by CCK8 assay; format: functional, cell-based; details: Huh-7, light or radiation study
HeLa [10] = experiment: Antiproliferative activity against human HeLa cells under 10 J/cm2 light irradiation at 660 nm by CCK8 assay; format: functional, cell-based; details: light or radiation study
HeLa [11] = experiment: Antiproliferative activity against human HeLa cells under dark condition by CCK8 assay; format: functional, cell-based
[12] = Partition coefficient, logP of compound; format: physicochemical; details: octanol/water
[13] = Aggregation property of compound in PBS; format: physicochemical; details: buffer

SMILES | IC50 [1] [µM] | IC50 (HepG2 [2]) [µM] | half-life (chymotrypsin) [h] | IC50 [3] [µM] | IC50 (MCF7 [4]) [µM] | IC50 (HepG2 [5]) [µM] | IC50 (Huh-7 [6]) [µM] | Stability [7] | IC50 (MCF7 [8]) [µM] | IC50 (Huh-7 [9]) [µM] | IC50 (HeLa [10]) [µM] | IC50 (HeLa [11]) [µM] | logP [12] | Activity [13]
C=Cc1c(C)c2cc3nc(c(CC(=O)O)c4[nH]c(cc5nc(cc1[nH]2)C(C)=C5CC)c(C)c4C(=O)NCCCC(=O)N[C@@H](CC(=O)O)C(=O)N[C@@H](Cc1ccc(O)cc1)C(=O)N[C@@H](CCC(=O)O)C(=O)N[C@@H](CCSC)C(=O)N[C@@H](Cc1cnc[nH]1)C(=O)N[C@@H](CC(C)C)C(=O)N[C@@H](Cc1c[nH]c2ccccc12)C(=O)N[C@@H](Cc1c[nH]c2ccccc12)C(=O)NCC(=O)N[C@H](C(=O)N[C@@H](CCC(=O)O)C(=O)N[C@@H](CC(C)C)C(=O)O)[C@@H](C)O)[C@@H](CCC(=O)O)[C@@H]3C (HELM PEPTIDE1{[C=Cc1c(C)c2cc3nc(c(CC(=O)O)c4[nH]c(cc5nc(cc1[nH]2)C(C)=C5CC)c(C)c4C(=O)[*:2])[C@@H](CCC(=O)O)[C@@H]3C].[O=C(CCCN[*:1])[*:2]].D.Y.E.M.H.L.W.W.G.T.E.L}$$$$V2.0) | 9.8 | > 200 | 1.3 | > 200 | 5.3 | 1.7 | > 200 | Stable | > 200 | 1.9 | 4.7 | > 200 | 1.5 | Active
C=Cc1c(C)c2cc3nc(c(CC(=O)O)c4[nH]c(cc5nc(cc1[nH]2)C(C)=C5CC)c(C)c4C(=O)NCCCC(=O)N[C@@H](CCCCN)C(=O)N[C@@H](CCCCN)C(=O)N[C@@H](CCCCN)C(=O)N[C@@H](CCCNC(=N)N)C(=O)N[C@@H](CC(C)C)C(=O)N[C@@H](CC(N)=O)C(=O)N[C@H](C(=O)NCC(=O)NCC(=O)N[C@H](C(=O)N[C@@H](Cc1ccc(O)cc1)C(=O)N[C@@H](Cc1ccccc1)C(=O)N[C@@H](CC(C)C)C(=O)N[C@H](C(=O)N[C@H](C(=O)N[C@@H](CCCNC(=N)N)C(=O)N[C@@H](CCC(N)=O)C(=O)O)[C@@H](C)O)[C@@H](C)O)[C@@H](C)O)C(C)C)[C@@H](CCC(=O)O)[C@@H]3C (HELM PEPTIDE1{[C=Cc1c(C)c2cc3nc(c(CC(=O)O)c4[nH]c(cc5nc(cc1[nH]2)C(C)=C5CC)c(C)c4C(=O)[*:2])[C@@H](CCC(=O)O)[C@@H]3C].[O=C(CCCN[*:1])[*:2]].K.K.K.R.L.N.V.G.G.T.Y.F.L.T.T.R.Q}$$$$V2.0) | 0.38 | > 200 | 1.3 | > 200 | 0.79 | 0.33 | > 200 | Stable | > 200 | 0.34 | 0.57 | > 200 | -0.5 | Not Active

Reference: ChEMBL document CHEMBL5537154, “Smart glypican-3-targeting peptide-chlorin e6 conjugates for targeted photodynamic therapy of hepatocellular carcinoma” (Eur J Med Chem, 2024)
